What is called IC50 is the concentration needed to halve the response being measured. The low end stands for greater potency in that assay, the high end for weaker potency in that assay. As usually defined, the pKi is the negative decadic logarithm of the Ki, by convention in mol/L. Usually pIC50 stands for −log10 of the IC50, conventionally taken in molar units. What is called % Inhibition is the drop in the measured response relative to a control, in per cent. Higher therefore signals a response far below the control.

Consider 1 compound from PMC12311259, “Antifibrotic effects of specific targeting of the 5‐hydroxytryptamine 2B receptor (5‐HT2BR) in murine models and ex vivo models of scleroderma skin” (Arthritis & Rheumatology (Hoboken, N.j.), 2025).

Structures are written as SMILES. pIC50, pKi: −log10 of the molar value. Entries after “also recorded” stand apart in the source; their conditions may differ. Some results are limits rather than exact numbers.

Test [1] concerns Sodium Channel, Site 2 (gp). The test can be described thus: Functionality assay, Eurofins Panlabs 475010. The class given is biochemical, guinea pig. An excerpt: (§1) Effects were considered significant if AM1476's mean value was three or more SDs above the vehicle control mean in the agonist assay or three or more SDs below the positive control agonist (5‐nM α‐methylserotonin) mean in the antagonist assay. AM1476 was screened for selectivity against approximately 200 targets using a Eurofins Panlabs Spectrum screen panel including enzymatic and receptor binding assays.

A further test concerns the target T1, Serotonin 5-HT6 (hu) (Homo sapiens, UniProt P50406).
T1 construct: 318000 (adenylyl cyclase)
The test can be described thus: Functionality assay, Adenylyl Cyclase, Eurofins Panlabs 318000. The class given is cell-based.
Text: as §1

The target of the next test is T2, human 5-HT2AR (Homo sapiens, UniProt P28223).
T2 construct: 355250 (IP1); host or cells: CHO-K1
T2 sequence (P28223 whole entry): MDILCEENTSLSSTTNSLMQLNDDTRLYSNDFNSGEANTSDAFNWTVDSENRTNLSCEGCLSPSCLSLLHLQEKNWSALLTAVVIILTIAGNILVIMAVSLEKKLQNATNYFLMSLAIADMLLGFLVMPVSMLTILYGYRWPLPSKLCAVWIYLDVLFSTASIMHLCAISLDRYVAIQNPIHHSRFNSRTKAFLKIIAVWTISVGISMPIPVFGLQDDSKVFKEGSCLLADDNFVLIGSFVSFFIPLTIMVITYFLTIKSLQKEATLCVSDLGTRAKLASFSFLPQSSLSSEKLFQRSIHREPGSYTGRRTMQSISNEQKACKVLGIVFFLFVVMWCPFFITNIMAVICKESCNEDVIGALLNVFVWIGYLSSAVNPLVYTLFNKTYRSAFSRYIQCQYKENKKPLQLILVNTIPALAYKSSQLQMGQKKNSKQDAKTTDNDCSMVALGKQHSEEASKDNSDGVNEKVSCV
In words: Radioligand binding assay, CHO-K1 cells overexpressing human receptor (Eurofins Panlabs). The conditions noted are these: read-out: inhibition constant (Ki), 5-HT2AR. The procedure:
(§2) The binding profile of AM1476 was evaluated for binding to human 5‐HT2AR, 5‐HT2BR, and 5‐HT2CR in radioligand binding assays using Chinese hamster ovary (CHO‐K1) cells overexpressing human receptors (in vitro assays 271650, 271700, and 271800; Eurofins Panlabs Discovery). AM1476 was evaluated at 0.1, 1, 10, 100, 1,000, and 10,000 nM (5‐HT2BR) or at 1, 10, 100, 1,000, and 10,000 nM (5‐HT2AR and 5‐HT2CR). Human 5‐HT2AR and 5‐HT2BR functionality was measured with homogeneous time‐resolved fluorescence quantification of IP1 accumulation in CHO‐K1 cells (in vitro assays 355250 and 355260). Compounds creating a ≥50% inhibition of 5‐HT (5 nM) induced fluorescence response specified receptor antagonist activity. 5‐HT2CR functionality was assessed with [35S] GTPγS for quantification of bound GTPγS. Compounds creating a ≥50% inhibition of 5‐HT (100 nM) induced [35S] GTPγS binding response specified receptor antagonist activity (in vitro assay 355200). AM1476 was evaluated at 0.1, 0.3, 1, 3, 10, 30, and 300 nM (5‐HT2BR) or 1, 10, 100, 1,000, and 10,000 nM (5‐HT2AR and 5‐HT2CR). A nonlinear least squares regression analysis was used to determine half‐maximal inhibitory concentration (IC50) values. Mouse 5‐HT2BR functionality was measured in a calcium influx assay (Charles River) in CHO‐KI cells expressing the mouse 5‐HT2BR using a calcium sensitive dye and a fluorescence imaging plate reader (FLIPRTETRA) instrument. AM1476 was evaluated at 0.3, 1, 3, 10, 30, 100, 300, and 1,000 nM.

The next test has as its target T3, 5-HT2CR (Homo sapiens, UniProt P28335).
T3 construct: 355200 (GTPγS); host or cells: CHO-K1
The description is as above. The note with it: read-out: inhibition constant (Ki), 5-HT2CR. The procedure: as §2

Test [2] concerns the target T4, human 5-HT2BR (Homo sapiens, UniProt P41595).
T4 construct: 355260 (IP1); host or cells: CHO-K1
The test is described as above. The conditions noted are these: read-out: inhibition constant (Ki), human 5-HT2BR. On the procedure: as §2

Test [3] deals with T4, human 5-HT2BR. In words: Functionality assay, HTRF quantification of IP1 accumulation in CHO-K1 cells. The class given is cell-based. (Time-resolved FRET reads energy transfer from a long-lived donor to a nearby acceptor.)
Test [4] addresses T5, Serotonin (5-Hydroxytryptamine) 5-HT5A (hu) (Homo sapiens, UniProt P47898).
T5 construct: Eurofins Panlabs 272100
The test can be described thus: Receptor binding, Eurofins Panlabs 272100.
Text: as §1

Test [5] has as its target T6, Serotonin (5-Hydroxytryptamine) 5-HT1A (hu) (Homo sapiens, UniProt P08908).
T6 construct: Eurofins Panlabs 271110
In words: Receptor binding, Eurofins Panlabs 271110.
Text: as §1

T4 sequence (P41595 whole entry): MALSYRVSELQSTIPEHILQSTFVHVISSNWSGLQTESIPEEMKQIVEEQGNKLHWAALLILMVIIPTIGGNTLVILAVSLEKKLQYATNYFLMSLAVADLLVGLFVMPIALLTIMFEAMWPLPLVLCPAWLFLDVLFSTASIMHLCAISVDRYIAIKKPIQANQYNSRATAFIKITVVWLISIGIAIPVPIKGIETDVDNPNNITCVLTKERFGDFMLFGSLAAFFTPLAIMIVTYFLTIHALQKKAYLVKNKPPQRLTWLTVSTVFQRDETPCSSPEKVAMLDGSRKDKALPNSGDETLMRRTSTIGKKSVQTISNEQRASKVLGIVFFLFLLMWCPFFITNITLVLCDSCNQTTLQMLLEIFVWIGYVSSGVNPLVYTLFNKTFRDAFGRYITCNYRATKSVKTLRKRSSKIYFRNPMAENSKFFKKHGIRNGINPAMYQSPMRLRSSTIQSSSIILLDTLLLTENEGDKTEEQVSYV
T1 sequence (P50406 whole entry): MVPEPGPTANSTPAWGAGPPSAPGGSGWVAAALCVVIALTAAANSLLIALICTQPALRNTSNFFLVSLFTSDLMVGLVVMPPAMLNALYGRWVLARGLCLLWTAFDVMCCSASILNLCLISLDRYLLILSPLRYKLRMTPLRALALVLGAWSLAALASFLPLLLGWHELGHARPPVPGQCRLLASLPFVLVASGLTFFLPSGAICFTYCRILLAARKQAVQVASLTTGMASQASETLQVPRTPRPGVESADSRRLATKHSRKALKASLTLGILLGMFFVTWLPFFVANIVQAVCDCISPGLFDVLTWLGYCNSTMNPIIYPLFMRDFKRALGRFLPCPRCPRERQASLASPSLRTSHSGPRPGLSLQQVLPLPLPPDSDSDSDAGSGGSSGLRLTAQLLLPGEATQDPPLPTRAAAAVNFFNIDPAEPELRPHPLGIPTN
T5 sequence (P47898 whole entry): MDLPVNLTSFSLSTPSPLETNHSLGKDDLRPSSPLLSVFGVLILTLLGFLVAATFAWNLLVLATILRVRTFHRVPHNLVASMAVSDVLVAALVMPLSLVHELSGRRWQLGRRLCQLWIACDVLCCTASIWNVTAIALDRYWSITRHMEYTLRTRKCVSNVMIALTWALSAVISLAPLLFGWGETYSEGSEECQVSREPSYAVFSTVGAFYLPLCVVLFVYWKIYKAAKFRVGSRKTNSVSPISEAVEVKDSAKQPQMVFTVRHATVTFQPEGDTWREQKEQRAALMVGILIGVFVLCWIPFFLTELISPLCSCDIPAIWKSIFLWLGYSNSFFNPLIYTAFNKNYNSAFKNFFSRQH
T3 sequence (P28335 33-458): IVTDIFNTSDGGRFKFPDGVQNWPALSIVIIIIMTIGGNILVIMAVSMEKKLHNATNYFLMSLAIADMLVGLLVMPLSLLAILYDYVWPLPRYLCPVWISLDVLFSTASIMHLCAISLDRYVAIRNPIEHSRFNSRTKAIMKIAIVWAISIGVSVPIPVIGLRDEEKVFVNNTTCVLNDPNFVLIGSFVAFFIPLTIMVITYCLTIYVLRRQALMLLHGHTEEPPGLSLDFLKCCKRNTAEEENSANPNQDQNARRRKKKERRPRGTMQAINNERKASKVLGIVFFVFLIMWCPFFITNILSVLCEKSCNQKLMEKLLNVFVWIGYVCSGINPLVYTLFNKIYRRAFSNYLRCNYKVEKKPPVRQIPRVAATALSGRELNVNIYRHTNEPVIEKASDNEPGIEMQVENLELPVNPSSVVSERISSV
T6 sequence (P08908 whole entry): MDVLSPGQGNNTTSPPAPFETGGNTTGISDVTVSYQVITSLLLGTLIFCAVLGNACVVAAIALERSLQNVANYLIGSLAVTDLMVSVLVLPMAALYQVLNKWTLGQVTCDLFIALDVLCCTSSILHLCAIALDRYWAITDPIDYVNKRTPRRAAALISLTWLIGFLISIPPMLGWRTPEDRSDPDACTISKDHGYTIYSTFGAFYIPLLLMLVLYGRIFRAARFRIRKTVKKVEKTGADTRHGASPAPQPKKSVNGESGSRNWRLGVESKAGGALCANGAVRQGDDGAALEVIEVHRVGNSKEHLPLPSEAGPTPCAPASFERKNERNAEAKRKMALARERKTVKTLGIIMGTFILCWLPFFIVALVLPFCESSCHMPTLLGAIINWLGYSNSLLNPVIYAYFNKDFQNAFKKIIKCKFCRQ

As to `C[C@@H]1CN(C(=N)N)N=C1c1ccc(F)cc1O` [AM1476], the IC50 in test [1] was greater than 30 µM; against Serotonin 5-HT6 (hu), 4.55 µM. In addition, the “agonistic activity, Sodium Channel, Site 2” value in test [1] (at 30 µM) was “No significant agonistic activity at 30 µM”. At Serotonin 5-HT6 (hu) (at 30 µM), the “agonistic activity, Serotonin 5-HT6” value is recorded as “No significant agonistic activity at 30 µM”. Besides, the pKi at human 5-HT2AR was 6.10; on 5-HT2CR, 7.22; on human 5-HT2BR [2] it was 8.22. The “agonistic activity at 5-HT2BR” value on human 5-HT2BR [3] was “devoid of agonistic activity; also recorded: no agonism”. The pIC50 on human 5-HT2BR [3] (inhibition of 5-HT (5 nM) induced IP1 response, CHO-K1, read-out: IC50, antagonistic activity, human 5-HT2B) is 8.24. The “% Inhibition at 1 µM, 5-HT5A (hu)” value in test [4] (1 µM (value in brackets)) stood at 10%. Also, the “% Inhibition at 10 µM, 5-HT5A (hu)” value in test [4] (10 µM) is listed as 70%. For the same compound, the “% Inhibition at 10 µM, 5-HT1A (hu)” value in test [5] was found to be 16%.
